Laboratory results published in publication PMC5578959, “Selective LRRK2 kinase inhibition reduces phosphorylation of endogenous Rab10 and Rab12 in human peripheral mononuclear blood cells” (Scientific Reports, 2017).

Columns and labels:
Test in all cases: KiNativ profiling in human PBMCs
Format in all cases: binding
[1] = tested on: T1, SLK
T1 construct: purchased ActivX Technologies (KiNativ)
Procedure, shortened: (§1)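 Compound concentrations: 1 µM and 0.1 µM, applied to intact human PBMCs; engagement of kinases determined with the KiNativ approach.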

[2] = tested on: T2, PIP4K2C; conditions: ATP
T2 construct: purchased ActivX Technologies (KiNativ)
Procedure, shortened: as §1

[3] = tested on: T3, KHS1; conditions: Lys1
T3 construct: purchased ActivX Technologies (KiNativ)
Procedure, shortened: as §1

[4] = tested on: T4, OSR1; conditions: Lys2
T4 construct: purchased ActivX Technologies (KiNativ)
Procedure, shortened: as §1

[5] = tested on: T5, LATS2
T5 construct: purchased ActivX Technologies (KiNativ)
Procedure, shortened: as §1

[6] = tested on: T6, NDR1
T6 construct: purchased ActivX Technologies (KiNativ)
Procedure, shortened: as §1

[7] = tested on: T7, LRRK2
T7 construct: purchased ActivX Technologies (KiNativ)
Procedure, shortened: as §1

[8] = tested on: T8, PYK2
T8 construct: purchased ActivX Technologies (KiNativ)
Procedure, shortened: as §1

[9] = tested on: T9, RSK2 domain1
T9 construct: RSK2 domain1; purchased ActivX Technologies (KiNativ)
Procedure, shortened: as §1

[10] = tested on: T10, GSK3A; conditions: Lys2
T10 construct: purchased ActivX Technologies (KiNativ)
Procedure, shortened: as §1

[11] = tested on: T11, MSK2 domain1; conditions: Lys2
T11 construct: MSK2 domain1; purchased ActivX Technologies (KiNativ)
Procedure, shortened: as §1

[12] = tested on: T12, BRAF; conditions: Lys2
T12 construct: purchased ActivX Technologies (KiNativ)
Procedure, shortened: as §1

[13] = tested on: T13, p38a
T13 construct: purchased ActivX Technologies (KiNativ)
Procedure, shortened: as §1

[14] = tested on: T14, smMLCK
T14 construct: purchased ActivX Technologies (KiNativ)
Procedure, shortened: as §1

[15] = tested on: T15, FES; conditions: Lys1
T15 construct: purchased ActivX Technologies (KiNativ)
Procedure, shortened: as §1

[16] = tested on: T16, GCK; conditions: 0.1µM; Lys1
T16 construct: purchased ActivX Technologies (KiNativ)
Procedure, shortened: as §1

## Cn1cc(-c2c[nH]c3ncnc(N4CCOCC4)c23)cc1C#N [PFE-360]
[1]; 0.1µM, Lys1
  % Inhibition: 3.8%
[1]; 0.1µM, Lys2
  % Inhibition: 4.8%
[1]; 1µM, Lys1
  % Inhibition: 22.3%
[1]; 1µM, Lys2
  % Inhibition: -8.4%
[2]; 0.1µM, peptide TLVIKEVSSEDIADMHSNLSNYHQYIVK
  % Inhibition: -22.2%
[2]; 0.1µM, peptide VKELPTLKDMDFLNK
  % Inhibition: -16.7%
[2]; 1µM, peptide TLVIKEVSSEDIADMHSNLSNYHQYIVK
  % Inhibition: -14.4%
[2]; 1µM, peptide VKELPTLKDMDFLNK
  % Inhibition: -2.6%
[3]; 0.1µM
  % Inhibition: 1.1%
[3]; 1µM
  % Inhibition: -9.3%
[4]; 0.1µM
  % Inhibition: -20.9%
[4]; 1µM
  % Inhibition: -5.1%
[5]; 0.1µM, Lys1
  % Inhibition: -10.2%
[5]; 0.1µM, Lys2
  % Inhibition: 5.5%
[5]; 1µM, Lys1
  % Inhibition: 16.6%
[5]; 1µM, Lys2
  % Inhibition: -0.4%
[6]; 0.1µM, Lys1
  % Inhibition: -16.4%
[6]; 0.1µM, Lys2
  % Inhibition: 5.8%
[6]; 1µM, Lys1
  % Inhibition: -6%
[6]; 1µM, Lys2
  % Inhibition: 1.6%
[7]; 0.1µM, Lys1
  % Inhibition: >90%
[7]; 0.1µM, Lys2
  % Inhibition: 93.8%
  Inhibition: full inhibition
[7]; 1µM, Lys1
  % Inhibition: >90%
[7]; 1µM, Lys2
  % Inhibition: 96.7%
[8]; 0.1µM, Activation Loop
  % Inhibition: 8.4%
[8]; 0.1µM, Lys1
  % Inhibition: 29.3%
[8]; 1µM, Activation Loop
  % Inhibition: 7.1%
[8]; 1µM, Lys1
  % Inhibition: -2.2%
[9]; 0.1µM, ATP Loop
  % Inhibition: 13.2%
[9]; 0.1µM, Activation Loop
  % Inhibition: 9.2%
[9]; 0.1µM, Lys2
  % Inhibition: -0.1%
[9]; 1µM, ATP Loop
  % Inhibition: 21.8%
[9]; 1µM, Activation Loop
  % Inhibition: 20.3%
[9]; 1µM, Lys2
  % Inhibition: 22.9%
[10]; 0.1µM
  % Inhibition: 10.6%
[10]; 1µM
  % Inhibition: 19.8%
[11]; 0.1µM
  % Inhibition: 2.2%
[11]; 1µM
  % Inhibition: 1.9%
[12]; 0.1µM
  % Inhibition: -13.9%
[12]; 1µM
  % Inhibition: -14.3%
[13]; 0.1µM, Lys2
  % Inhibition: 7.1%
[13]; 0.1µM, Protein Kinase Domain
  % Inhibition: 7.5%
[13]; 1µM, Lys2
  % Inhibition: -2.9%
[13]; 1µM, Protein Kinase Domain
  % Inhibition: 1%
[14]; 0.1µM, Lys1
  % Inhibition: 1.5%
[14]; 0.1µM, Lys2
  % Inhibition: -14.6%
[14]; 1µM, Lys1
  % Inhibition: -16.9%
[14]; 1µM, Lys2
  % Inhibition: 3.3%
[15]; 0.1µM
  % Inhibition: -0.3%
[15]; 1µM
  % Inhibition: -5.7%
[16]
  % Inhibition: 7.4%
